Target: wild-type human cardiac sodium channel, hNav1.5 (late INa) (Homo sapiens, UniProt Q14524)
Experiment: Late INa screening assay (QPatch whole cell patch clamp)
Type: cell-based
Settings: percent block of late INa, compound at 1 μM, 10 μM Tefluthrin, HEK293 hNav1.5; read-out: Late INa 1 μM
Procedure: The late sodium current (Late INa) and peak sodium current (Peak INa) assays are performed on an automated electrophysiology platform, QPatch 16× (Sophion Bioscience, Copenhagen, Denmark), which uses the whole cell patch clamp technique to measure currents through the cell membrane of up to 16 cells at a time. The assay uses an HEK293 (human embryonic kidney) cell line heterologously expressing the wild-type human cardiac sodium channel, hNav1.5, purchased from Millipore (Billerica, Mass.). No beta subunits were coexpressed with the Na channel alpha subunit. Cells are maintained with standard tissue culture procedures and stable channel expression is maintained with 400 μg/mL Geneticin in the culture medium. […] Experiments are carried out at 23-25° C. For both the Late INa and Peak INa assays, series resistance compensation is set to 100% and series resistance and whole-cell compensation are performed automatically. Currents are digitized at 25 kHz and low-pass filtered at 12 kHz and 10 kHz for the late and peak INa assays, respectively. Currents through open sodium channels are automatically recorded and stored in the Sophion Bioscience Oracle database (Sophion Bioscience, Copehagen, Denmark). Analysis is performed using QPatch Assay and database software and data are compiled in Excel. Compound stocks are routinely made by the Gilead Sample Bank in plastic vials to 10 mM in dimethyl sulfoxide (DMSO). In some cases, when compounds are not soluble in DMSO, they are made in 100% ethanol. Stocks are sonicated as necessary. […] The intracellular solution used to perfuse the inside of the cells for both the Late INa and Peak INa assays contains: 120 mM CsF, 20 mM CsCl, 5 mM EGTA, 5 mM HEPES and pH adjusted to 7.4 with CsOH. Compounds are diluted in extracellular solution to 1 μM in glass vials and then transferred to glass well plates before robotic addition to the cells. […] For the Late INa assay, sodium channels are activated every 10 seconds (0.1 Hz) by depolarizing the cell membrane to −20 mV for 250 milliseconds (ms) from a holding potential of −120 mV. In response to a −20 mV voltage step, typical hNav1.5 sodium currents activate rapidly to a peak negative current and then inactivate nearly completely within 3-4 ms. All compounds were tested to determine their activity in blocking the late sodium current. Late INa was generated by adding 10 μM Tefluthrin (pyrethroid) to the extracellular solution while recording Na currents. To confirm the block of late INa observed using the automated screening method, a second late INa enhancer (ATX-II) and the manual patch clamp method were used. ATX-II and tefluthrin occupy distinct, non-overlapping binding sites and modify Na^+ channel function differently to increase late INa. […] For the purposes of the screening, late INa is defined as the mean current between 225 ms and 250 ms after stepping to −20 mV to activate Na channels. […] Results are reported as percent block of late INa.

wild-type human cardiac sodium channel, hNav1.5 (late INa), sequence (Q14524 whole entry): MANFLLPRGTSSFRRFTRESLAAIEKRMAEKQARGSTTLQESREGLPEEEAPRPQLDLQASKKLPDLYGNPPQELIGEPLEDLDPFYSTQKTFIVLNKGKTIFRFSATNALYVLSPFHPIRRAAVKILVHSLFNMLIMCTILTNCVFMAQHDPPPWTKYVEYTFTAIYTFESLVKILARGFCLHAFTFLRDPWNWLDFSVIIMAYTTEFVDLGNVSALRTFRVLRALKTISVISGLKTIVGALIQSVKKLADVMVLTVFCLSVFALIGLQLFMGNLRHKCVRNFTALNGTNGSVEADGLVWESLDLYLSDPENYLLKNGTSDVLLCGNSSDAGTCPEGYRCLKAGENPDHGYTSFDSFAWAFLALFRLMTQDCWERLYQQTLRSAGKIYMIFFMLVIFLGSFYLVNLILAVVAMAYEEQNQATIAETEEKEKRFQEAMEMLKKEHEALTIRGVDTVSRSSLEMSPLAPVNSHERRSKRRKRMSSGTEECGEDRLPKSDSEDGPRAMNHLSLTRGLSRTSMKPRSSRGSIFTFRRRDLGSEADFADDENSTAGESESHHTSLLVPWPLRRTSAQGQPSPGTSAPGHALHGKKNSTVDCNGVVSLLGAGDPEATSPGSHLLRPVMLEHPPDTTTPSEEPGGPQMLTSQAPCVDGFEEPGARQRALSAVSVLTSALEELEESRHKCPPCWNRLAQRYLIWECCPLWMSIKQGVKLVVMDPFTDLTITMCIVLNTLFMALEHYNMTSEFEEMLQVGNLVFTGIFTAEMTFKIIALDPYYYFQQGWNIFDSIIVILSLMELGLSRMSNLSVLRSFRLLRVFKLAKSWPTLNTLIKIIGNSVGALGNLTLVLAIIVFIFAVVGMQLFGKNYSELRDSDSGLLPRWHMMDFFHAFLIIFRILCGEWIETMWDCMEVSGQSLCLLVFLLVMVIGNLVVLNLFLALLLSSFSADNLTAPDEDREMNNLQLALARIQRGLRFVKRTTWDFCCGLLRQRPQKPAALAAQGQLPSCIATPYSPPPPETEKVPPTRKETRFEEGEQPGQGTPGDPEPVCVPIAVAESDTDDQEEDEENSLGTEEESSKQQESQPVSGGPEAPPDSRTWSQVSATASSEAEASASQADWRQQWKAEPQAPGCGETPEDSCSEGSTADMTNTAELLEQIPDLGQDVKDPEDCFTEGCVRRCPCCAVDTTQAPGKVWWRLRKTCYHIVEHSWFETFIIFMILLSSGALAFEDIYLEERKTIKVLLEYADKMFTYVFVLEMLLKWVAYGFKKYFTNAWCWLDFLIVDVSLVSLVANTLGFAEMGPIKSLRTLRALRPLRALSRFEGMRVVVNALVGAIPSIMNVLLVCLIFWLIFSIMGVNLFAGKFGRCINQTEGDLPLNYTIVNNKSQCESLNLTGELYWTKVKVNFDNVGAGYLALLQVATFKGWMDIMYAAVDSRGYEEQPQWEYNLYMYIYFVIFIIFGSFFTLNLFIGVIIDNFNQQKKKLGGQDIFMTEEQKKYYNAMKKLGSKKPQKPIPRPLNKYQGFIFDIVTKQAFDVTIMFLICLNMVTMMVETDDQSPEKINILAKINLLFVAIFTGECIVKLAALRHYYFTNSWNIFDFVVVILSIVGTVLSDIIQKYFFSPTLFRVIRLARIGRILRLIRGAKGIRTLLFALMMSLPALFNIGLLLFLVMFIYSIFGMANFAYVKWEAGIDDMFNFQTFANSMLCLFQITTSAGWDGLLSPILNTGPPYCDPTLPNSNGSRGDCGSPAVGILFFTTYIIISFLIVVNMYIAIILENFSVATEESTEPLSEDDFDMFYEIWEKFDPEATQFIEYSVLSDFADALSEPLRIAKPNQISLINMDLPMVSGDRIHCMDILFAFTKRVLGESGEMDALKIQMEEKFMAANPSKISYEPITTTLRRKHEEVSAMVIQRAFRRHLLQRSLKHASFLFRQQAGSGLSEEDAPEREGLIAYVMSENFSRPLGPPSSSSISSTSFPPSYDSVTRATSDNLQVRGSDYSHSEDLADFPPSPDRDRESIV

Row | Structure (SMILES) | inhibition at 1 µM [%]
1 | O=C(Cc1ncccn1)N1CCc2ccc(-c3ccc(C(F)(F)F)cc3)cc2C1 [IX-30, 2-(pyrimidin-2-yl)-1-(7-(4-(trifluoromethyl)phenyl)-3,4-dihydroisoquinolin-2(1H)-yl)ethanone] | 20
2 | CC(C)c1nccc(C(=O)N2CCc3ccc(-c4ccc(C(F)(F)F)cc4)cc3C2)n1 [IX-31, (2-isopropylpyrimidin-4-yl)(7-(4-(trifluoromethyl)phenyl)-3,4-dihydroisoquinolin-2(1H)-yl)methanone] | 25
3 | O=C(c1ccncn1)N1CCc2ccc(-c3ccc(C(F)(F)F)cc3)cc2C1 [IX-32, pyrimidin-4-yl(7-(4-(trifluoromethyl)phenyl)-3,4-dihydroisoquinolin-2(1H)-yl)methanone] | 29
4 | O=C(c1cncnc1)N1CCc2ccc(-c3ccc(C(F)(F)F)cc3)cc2C1 [IX-33, pyrimidin-5-yl(7-(4-(trifluoromethyl)phenyl)-3,4-dihydroisoquinolin-2(1H)-yl)methanone] | 21
5 | Cc1cc(C(=O)N2CCc3ccc(-c4ccc(C(F)(F)F)cc4)cc3C2)nc(N)n1 [IX-34, (2-amino-6-methylpyrimidin-4-yl)(7-(4-(trifluoromethyl)phenyl)-3,4-dihydroisoquinolin-2(1H)-yl)methanone] | 16
6 | O=C(c1ccn[nH]1)N1CCc2ccc(-c3ccc(C(F)(F)F)cc3)cc2C1 [IX-36, (1H-pyrazol-5-yl)(7-(4-(trifluoromethyl)phenyl)-3,4-dihydroisoquinolin-2(1H)-yl)methanone] | 20
7 | O=C(NCc1ccccc1)N1CCc2ccc(-c3ccc(C(F)(F)F)cc3)cc2C1 [IX-41, N-benzyl-7-(4-(trifluoromethyl)phenyl)-3,4-dihydroisoquinoline-2(1H)-carboxamide] | 27
8 | O=C(Nc1ccccc1)N1CCc2ccc(-c3ccc(C(F)(F)F)cc3)cc2C1 [IX-42, N-phenyl-7-(4-(trifluoromethyl)phenyl)-3,4-dihydroisoquinoline-2(1H)-carboxamide] | 25
9 | O=C(NC1CC1)N1CCc2ccc(-c3ccc(C(F)(F)F)cc3)cc2C1 [IX-44, N-cyclopropyl-7-(4-(trifluoromethyl)phenyl)-3,4-dihydroisoquinoline-2(1H)-carboxamide] | 27
10 | O=C(N1CCOCC1)N1CCc2ccc(-c3ccc(C(F)(F)F)cc3)cc2C1 [IX-52, morpholino(7-(4-(trifluoromethyl)phenyl)-3,4-dihydroisoquinolin-2(1H)-yl)methanone] | 26
11 | Cn1cncc1C(=O)N1CCc2ccc(-c3ccc(C(F)(F)F)cc3)cc2C1 [IX-56, (1-methyl-1H-imidazol-5-yl)(7-(4-(trifluoromethyl)phenyl)-3,4-dihydroisoquinolin-2(1H)-yl)methanone] | 28
12 | O=C(c1[nH]cnc1F)N1CCc2ccc(-c3ccc(C(F)(F)F)cc3)cc2C1 [IX-59, (4-fluoro-1H-imidazol-5-yl)(7-(4-(trifluoromethyl)phenyl)-3,4-dihydroisoquinolin-2(1H)-yl)methanone] | 17
13 | O=C(NC1CCCC1)N1CCc2ccc(-c3ccc(C(F)(F)F)cc3)cc2C1 [IX-77, N-cyclopentyl-7-(4-(trifluoromethyl)phenyl)-3,4-dihydroisoquinoline-2(1H)-carboxamide] | 22
14 | O=C(N1CCC1)N1CCc2ccc(-c3ccc(C(F)(F)F)cc3)cc2C1 [IX-88, azetidin-1-yl(7-(4-(trifluoromethyl)phenyl)-3,4-dihydroisoquinolin-2(1H)-yl)methanone] | 25
15 | CC1CCN(C(=O)N2CCc3ccc(-c4ccc(C(F)(F)F)cc4)cc3C2)C1 (stereo not shown) [IX-90, (3-methylpyrrolidin-1-yl)(7-(4-(trifluoromethyl)phenyl)-3,4-dihydroisoquinolin-2(1H)-yl)methanone] | 27
16 | O=C(N1CCc2ccc(-c3ccc(C(F)(F)F)cc3)cc2C1)N1CCC(O)C1 (stereo not shown) [IX-91, (3-hydroxypyrrolidin-1-yl)(7-(4-(trifluoromethyl)phenyl)-3,4-dihydroisoquinolin-2(1H)-yl)methanoneo] | 16

Row | Structure (SMILES) | inhibition at 1 µM [%]
17 | O=C(N1CCc2ccc(-c3ccc(C(F)(F)F)cc3)cc2C1)N1CC(F)(F)C1 [IX-92, (3,3-difluoroazetidin-1-yl)(7-(4-(trifluoromethyl)phenyl)-3,4-dihydroisoquinolin-2(1H)-yl)methanone] | 17
18 | O=C(N1CCc2ccc(-c3ccc(C(F)(F)F)cc3)cc2C1)N1CC(Oc2cccnc2)C1 [IX-93, (3-(pyridin-3-yloxy)azetidin-1-yl)(7-(4-(trifluoromethyl)phenyl)-3,4-dihydroisoquinolin-2(1H)-yl)methanone] | 15
19 | O=C(N1CCc2ccc(-c3ccc(C(F)(F)F)cc3)cc2C1)N1CCC(F)C1 (stereo not shown) [IX-94, (3-fluoropyrrolidin-1-yl)(7-(4-(trifluoromethyl)phenyl)-3,4-dihydroisoquinolin-2(1H)-yl)methanone] | 33
20 | O=C(N1CCc2ccc(-c3ccc(C(F)(F)F)cc3)cc2C1)N1CC(F)C1 [IX-95, (3-fluoroazetidin-1-yl)(7-(4-(trifluoromethyl)phenyl)-3,4-dihydroisoquinolin-2(1H)-yl)methanone] | 25
21 | Cn1cnc(S(=O)(=O)N2CCc3ccc(-c4ccc(C(F)(F)F)cc4)cc3C2)c1 [IX-98, 2-(1-methyl-1H-imidazol-4-ylsulfonyl)-7-(4-(trifluoromethyl)phenyl)-1,2,3,4-tetrahydroisoquinoline] | 27
22 | O=C(N1CCc2ccc(-c3ccc(C(F)(F)F)cc3)cc2C1)N1CC[C@@H](CO)C1 [IX-101, (R)-(3-(hydroxymethyl)pyrrolidin-1-yl)(7-(4-(trifluoromethyl)phenyl)-3,4-dihydroisoquinolin-2(1H)-yl)methanone] | 15
23 | O=C(N1CCc2ccc(-c3ccc(C(F)(F)F)cc3)cc2C1)N1CCC[C@H]1CO [IX-102, (S)-(2-(hydroxymethyl)pyrrolidin-1-yl)(7-(4-(trifluoromethyl)phenyl)-3,4-dihydroisoquinolin-2(1H)-yl)methanone] | 27
24 | CS(=O)(=O)C1CN(C(=O)N2CCc3ccc(-c4ccc(C(F)(F)F)cc4)cc3C2)C1 [IX-104, (3-(methylsulfonyl)azetidin-1-yl)(7-(4-(trifluoromethyl)phenyl)-3,4-dihydroisoquinolin-2(1H)-yl)methanone] | 20
25 | C[C@@H]1CC[C@H](C)N1C(=O)N1CCc2ccc(-c3ccc(C(F)(F)F)cc3)cc2C1 [IX-106] | 21
26 | CC1CN(C(=O)N2CCc3ccc(-c4ccc(C(F)(F)F)cc4)cc3C2)C1 [IX-107, (3-methylazetidin-1-yl)(7-(4-(trifluoromethyl)phenyl)-3,4-dihydroisoquinolin-2(1H)-yl)methanone] | 24
27 | Nc1n[nH]c(C(=O)N2CCc3ccc(-c4ccc(C(F)(F)F)cc4)cc3C2)n1 [IX-111, (3-amino-1H-1,2,4-triazol-5-yl)(7-(4-(trifluoromethyl)phenyl)-3,4-dihydroisoquinolin-2(1H)-yl)methanone] | 27
28 | CC1(O)CN(C(=O)N2CCc3ccc(-c4ccc(C(F)(F)F)cc4)cc3C2)C1 [IX-112, (3-hydroxy-3-methylazetidin-1-yl)(7-(4-(trifluoromethyl)phenyl)-3,4-dihydroisoquinolin-2(1H)-yl)methanone] | 18
29 | O=C(N1CCc2ccc(-c3ccc(C(F)(F)F)cc3)cc2C1)N1CC(CO)C1 [IX-113, (3-(hydroxymethyl)azetidin-1-yl)(7-(4-(trifluoromethyl)phenyl)-3,4-dihydroisoquinolin-2(1H)-yl)methanone] | 17
30 | CC(C)(C)OC(=O)N1CCC[C@@H]1C(=O)N1CCc2ccc(-c3ccc(C(F)(F)F)cc3)cc2C1 [IX-114, (R)-tert-butyl 2-(7-(4-(trifluoromethyl)phenyl)-1,2,3,4-tetrahydroisoquinoline-2-carbonyl)pyrrolidine-1-carboxylate] | 20
31 | O=C(c1cnnn1-c1ccccc1)N1CCc2ccc(-c3ccc(C(F)(F)F)cc3)cc2C1 [IX-116, (1-phenyl-1H-1,2,3-triazol-5-yl)(7-(4-(trifluoromethyl)phenyl)-3,4-dihydroisoquinolin-2(1H)-yl)methanone] | 29
